Laboratory results from patent US11857537B2, “Use of prostacyclin antagonists for treating ocular surface nociception” (JENIVISION INC., priority 2016, dated 2024).
“Also recorded” adds a separate entry of the source.

Tests used:
[1] = tested on: ocular pain; assay: Patient case examples: ocular pain after topical ocular administration; type: in vivo, human; conditions: Example II: person, extreme ocular discomfort with pain; 0.3% w/v solution, then twice a day
Source text: A person was suffering from extreme ocular discomfort which was associated with pain. […] A person suffers a grade 2 chemical eye burn from an acidic substance. Despite being administered prednisolone acetate 1% every two hours, severe ocular pain persists. The physician will administer Formula 3 from Table I, three times a day. […] After 7-21 days, the patient experiences corneal/conjunctival epithelium and keratocytes proliferate. Collagen synthesis begins. A person suffers from aqueous tear deficient dry eye associated occasionally with moderate to severe sharp ocular pain.

[2] = tested on: ocular surface nociception induced by corneal scarification in Cynomolgus monkeys; assay: Mild corneal abrasion (scarification) model of ocular discomfort, nictation (blinking) rate; type: in vivo, Cynomolgus monkey
Method: A prostanoid IP receptor antagonist (4,5-dihydro-N-[4-[[4-(1-methylethoxy)phenyl]methyl]phenyl]-1H-imadazol-2-amine RO-1138452, CAY 10441), at a dose of 0.3% w/v in an aqueous 1% polysorbate 80 in Tris-HCL (a standard ocular vehicle used in testing of ophthalmic drugs), was administered topically to the ocular surface of […] Cynomolgus monkeys. Cynomologus monkeys are the closest animal model for humans. A model that replicates an actual clinically encountered ocular condition, namely corneal abrasion, was employed.
As an animal model indicative of both ocular discomfort and pain, mild corneal scarification and measurement of the resultant increased blinking (nictation) rate was employed. The species chosen was the Cynomologous monkey and there are reasons for this selection. […] Increased rate of blinking (nictation) is recognized as a reliable end-point indicative of discomfort and pain and was, therefore, used in the studies described herein. There is a linear correlation between ocular surface sensory-evoked stimulation and blink rate in humans (Wu et al., 2014). Increased blinking frequency is associated with a diverse variety of conditions that elicit ocular discomfort and pain such as air borne noxious contaminants (Lang et al., 2008), acidic solutions (Collejo et al, 2015), dry eye conditions and wearing contact lenses (Wu et al., 2014). Thus, increased blinking rate is a universal indicator of ocular surface nociception resulting in discomfort and pain.
The drug formulation was administered post-scarification of the cornea, and at identical time points on two subsequent days. Ocular discomfort was monitored as the nictation (blinking) rate. Blinking is an established human behavioral response to corneal discomfort and irritation (Lang et al., 2008; Wu et al., 2014; Callejo et al., 2015). […]
A total of eight naïve Cynomolgus monkeys were used. […] The nictation rate (blinking rate) was measured to provide quantification of discomfort. […]

SMILES: CC(C)Oc1ccc(Cc2ccc(NC3=NCCN3)cc2)cc1 [4,5-dihydro-N-[4-[[4-(1-methylethoxy)phenyl]methyl]phenyl]-1H-imadazol-2-amine]
- ocular pain [1]: immediate reduction of ocular pain; also recorded: all pain is reduced and eventually disappears
- nictation rate in drug treated eyes compared with vehicle ([2]; 0.3% w/v topical once daily on Day 4 and Day 5 after corneal scarification on Day 3, n=4 per group, P<0.01 vs vehicle): statistically significantly lower
- ocular surface nociception induced by scarification ([2]; 0.3% w/v topical, P≤0.01 non-paired t-test): significantly reduced
- difference in blinking rate, control vs. treated group ([2]; two days after the surgery (Day 5-16:00)): minimal
